For 15 molecules, EC50 and IC50 results are on record in patent US11584747B2, “Substituted pyridopyrimidinonyl compounds useful as T cell activators” (BRISTOL-MYERS SQUIBB COMPANY, priority 2019, dated 2023).

What is called EC50 is the midpoint of the concentration-response curve. The low end stands for greater potency, the high end for weaker potency. Usually IC50 stands for the concentration that gives 50% inhibition.

In one test the test system is whole blood (pERK). Description: pERK Whole Blood. Format: cell-based.
The target of a further test is human DGKα (Homo sapiens (Human), UniProt P23743). Nature of the test: DGKα ADPGLO assay (detergent/lipid micelle substrate). It is filed as biochemical. As to conditions: ADPGLO assay; read-out: DGK alpha ADPGLO IC50. As to the method: DGK Alpha ADPGLO (Truncated) IC50 (uM)
human DGKα, sequence (P23743 whole entry, looked up, the tested form may be a part): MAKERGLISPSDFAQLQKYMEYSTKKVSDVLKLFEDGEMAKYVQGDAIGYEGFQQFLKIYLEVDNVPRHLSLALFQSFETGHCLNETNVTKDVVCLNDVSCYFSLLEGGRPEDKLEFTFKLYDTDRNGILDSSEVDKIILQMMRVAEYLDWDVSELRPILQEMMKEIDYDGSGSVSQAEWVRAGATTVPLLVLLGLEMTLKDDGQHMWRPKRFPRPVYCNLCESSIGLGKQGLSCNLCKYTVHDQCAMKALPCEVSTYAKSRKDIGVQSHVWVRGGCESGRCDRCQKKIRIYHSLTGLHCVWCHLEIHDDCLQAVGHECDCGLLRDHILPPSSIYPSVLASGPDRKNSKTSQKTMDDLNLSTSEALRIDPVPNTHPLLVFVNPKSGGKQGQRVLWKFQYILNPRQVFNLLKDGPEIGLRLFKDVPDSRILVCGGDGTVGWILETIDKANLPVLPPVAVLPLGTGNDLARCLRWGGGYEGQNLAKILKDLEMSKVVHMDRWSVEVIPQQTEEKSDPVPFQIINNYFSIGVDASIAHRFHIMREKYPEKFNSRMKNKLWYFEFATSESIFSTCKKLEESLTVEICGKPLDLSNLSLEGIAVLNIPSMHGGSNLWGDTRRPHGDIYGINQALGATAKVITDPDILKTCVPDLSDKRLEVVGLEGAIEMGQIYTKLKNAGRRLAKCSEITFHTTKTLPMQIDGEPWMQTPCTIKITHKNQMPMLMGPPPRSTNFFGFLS
The detergent/lipid micelle was prepared by combining 15 g phosphatidylserine (Avanti 840035P) and 1 g diacylglycerol (8008110) and dissolving into 150 mL chloroform in a 2 L round bottom flask. Chloroform was removed under high vacuum by rotary evaporation. […] The lipid/detergent solution was split into 5 mL aliquots and stored at −80° C.

The target in the next test is human DGKζ (Homo sapiens (Human), UniProt Q13574). Description: DGKζ LIPGLO assay (extruded liposome substrate, ADP-Glo luminescence). It is filed as biochemical. The note with it: liposome (LIPGLO) assay; read-out: DGK zeta (liposome assay) IC50.
human DGKζ, sequence (Q13574 other isoform, or with tags, fused parts or gaps): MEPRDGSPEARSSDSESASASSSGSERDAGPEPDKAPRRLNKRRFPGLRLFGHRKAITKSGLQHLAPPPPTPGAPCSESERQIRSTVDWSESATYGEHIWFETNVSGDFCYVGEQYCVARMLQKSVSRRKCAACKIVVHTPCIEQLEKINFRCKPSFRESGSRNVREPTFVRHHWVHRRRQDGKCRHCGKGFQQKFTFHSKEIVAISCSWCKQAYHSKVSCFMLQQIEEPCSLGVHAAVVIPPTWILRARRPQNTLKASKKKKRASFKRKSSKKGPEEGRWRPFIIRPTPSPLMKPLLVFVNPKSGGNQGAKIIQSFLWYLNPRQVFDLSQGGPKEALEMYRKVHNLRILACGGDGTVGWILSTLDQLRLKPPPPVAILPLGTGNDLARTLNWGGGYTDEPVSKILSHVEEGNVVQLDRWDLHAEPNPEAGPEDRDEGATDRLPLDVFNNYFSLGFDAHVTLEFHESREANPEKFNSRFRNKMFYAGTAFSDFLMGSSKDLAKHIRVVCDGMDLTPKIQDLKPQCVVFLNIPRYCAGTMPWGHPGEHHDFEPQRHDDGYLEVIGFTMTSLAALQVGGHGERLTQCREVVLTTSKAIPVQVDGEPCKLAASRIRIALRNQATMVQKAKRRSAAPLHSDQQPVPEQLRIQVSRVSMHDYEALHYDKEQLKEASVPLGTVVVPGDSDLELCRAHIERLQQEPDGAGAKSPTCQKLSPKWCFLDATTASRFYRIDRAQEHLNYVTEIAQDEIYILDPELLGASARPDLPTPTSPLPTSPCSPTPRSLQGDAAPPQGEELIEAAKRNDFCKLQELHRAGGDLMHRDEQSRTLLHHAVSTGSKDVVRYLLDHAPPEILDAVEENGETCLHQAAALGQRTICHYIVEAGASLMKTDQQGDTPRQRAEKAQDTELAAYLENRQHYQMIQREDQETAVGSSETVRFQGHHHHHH

Take `CCC(c1ccc(F)c(F)c1)N1C[C@H](C)N(c2nc(=O)n(C)c3ccc(C#N)nc23)C[C@H]1CC` (stereo partly drawn) [Example 320, 4-((2S,5R)-4-(1-(3,4-difluorophenyl)propyl)-5-ethyl-2-methylpiperazin-1-yl)-1-methyl-2-oxo-1,2-dihydropyrido[3,2-d]pyrimidine-6-carbonitrile]: the half-maximal effective concentration (EC50) in the test with whole blood (pERK) came out at 930 nM. The results for the IC50 on human DGKα and on human DGKζ were 420 nM and 620 nM, respectively.

The molecule `CC[C@@H]1CN(c2nc(=O)n(C)c3ccc(C#N)nc23)[C@@H](C)CN1C(c1ccc(OC(C)C)cc1)C(C)C` (stereo partly drawn) [Example 323, 4-((2S,5R)-5-ethyl-4-(1-(4-isopropoxyphenyl)-2-methylpropyl)-2-methylpiperazin-1-yl)-1-methyl-2-oxo-1,2-dihydropyrido[3,2-d]pyrimidine-6-carbonitrile] showed an EC50 in the test on whole blood (pERK) of 670 nM. Also, the IC50 was found to be 520 nM on human DGKα and 21 nM on human DGKζ.

Molecule `CC[C@@H]1CN(c2nc(=O)n(C)c3ccc(C#N)nc23)[C@@H](C)CN1C(c1ccc(OC(C)C)cc1)C(C)C` (stereo partly drawn) [Example 324, 4-((2S,5R)-5-ethyl-4-(1-(4-isopropoxyphenyl)-2-methylpropyl)-2-methylpiperazin-1-yl)-1-methyl-2-oxo-1,2-dihydropyrido[3,2-d]pyrimidine-6-carbonitrile] registered a half-maximal effective concentration (EC50) in the test with whole blood (pERK) of 4210 nM. Besides, the IC50 at human DGKα came to 850 nM; on human DGKζ, 200 nM.

The molecule `CC[C@@H]1CN(c2nc(=O)n(C)c3ccc(C#N)nc23)[C@@H](C)CN1C(C)c1ccc(C2(C#N)CC2)cc1` (stereo partly drawn) [Example 325, 4-((2S,5R)-4-(1-(4-(1-cyanocyclopropyl)phenyl)ethyl)-5-ethyl-2-methylpiperazin-1-yl)-1-methyl-2-oxo-1,2-dihydropyrido[3,2-d]pyrimidine-6-carbonitrile] had an EC50 with whole blood (pERK) of 70 nM. The IC50 on human DGKα was 800 nM; on human DGKζ, 69 nM.

In turn, `CCC(c1c(F)cc(OCC2CC2)cc1F)N1C[C@H](C)N(c2nc(=O)n(C)c3ccc(C#N)nc23)C[C@H]1CC` (stereo partly drawn) [Example 327, 4-((2S,5R)-4-(1-(4-(cyclopropylmethoxy)-2,6-difluorophenyl)propyl)-5-ethyl-2-methylpiperazin-1-yl)-1-methyl-2-oxo-1,2-dihydropyrido[3,2-d]pyrimidine-6-carbonitrile] showed an EC50 with whole blood (pERK) of 2070 nM. Further, the 50% inhibitory concentration (IC50) came to 320 nM on human DGKα and 57 nM at human DGKζ.

In turn, `CCC(c1c(F)cc(OCC2CC2)cc1F)N1C[C@H](C)N(c2nc(=O)n(C)c3ccc(C#N)nc23)C[C@H]1CC` (stereo partly drawn) [Example 328, 4-((2S,5R)-4-(1-(4-(cyclopropylmethoxy)-2,6-difluorophenyl)propyl)-5-ethyl-2-methylpiperazin-1-yl)-1-methyl-2-oxo-1,2-dihydropyrido[3,2-d]pyrimidine-6-carbonitrile] registered a concentration for a half-maximal effect (EC50) with whole blood (pERK) of 20000 nM. The IC50 on human DGKα worked out at 2970 nM; at human DGKζ it was 2230 nM.

Regarding `CC[C@@H]1CN(c2nc(=O)n(C)c3ccc(C#N)nc23)[C@@H](C)CN1C(C)c1ccc(C2CCOCC2)cc1` (stereo partly drawn) [Example 329, 4-((2 S,5R)-5-ethyl-2-methyl-4-(1-(4-(tetrahydro-2H-pyran-4-yl)phenyl)ethyl)piperazin-1-yl)-1-methyl-2-oxo-1,2-dihydropyrido[3,2-d]pyrimidine-6-carbonitrile], in the test on whole blood (pERK), the concentration for a half-maximal effect (EC50) is 1560 nM. The concentration for half-maximal inhibition (IC50) at human DGKα turned out to be 5290 nM; on human DGKζ, 740 nM.

In the test with whole blood (pERK), `CC[C@@H]1CN(c2nc(=O)n(C)c3ccc(C#N)nc23)[C@@H](C)CN1C(C)c1ccc(C2CCOCC2)cc1` (stereo partly drawn) [Example 330, 4-((2 S,5R)-5-ethyl-2-methyl-4-(1-(4-(tetrahydro-2H-pyran-4-yl)phenyl)ethyl)piperazin-1-yl)-1-methyl-2-oxo-1,2-dihydropyrido[3,2-d]pyrimidine-6-carbonitrile] had an EC50 of 11000 nM. The concentration for half-maximal inhibition (IC50) at human DGKα came out at 640 nM; at human DGKζ, 2830 nM.

The molecule `CCC(c1ccc(C2OCCO2)cc1)N1C[C@H](C)N(c2nc(=O)n(C)c3ccc(C#N)nc23)C[C@H]1CC` (stereo partly drawn) [Example 331, 4-((2S,5R)-4-(1-(4-(1,3-dioxolan-2-yl)phenyl)propyl)-5-ethyl-2-methylpiperazin-1-yl)-1-methyl-2-oxo-1,2-dihydropyrido[3,2-d]pyrimidine-6-carbonitrile] yielded a concentration giving a half-maximal response (EC50) with whole blood (pERK) of 940 nM. The IC50 was determined as 38 nM on human DGKα and 33 nM at human DGKζ.

In turn, `CCC(c1ccc(OCC2CCOCC2)cc1)N1C[C@H](C)N(c2nc(=O)n(C)c3ccc(C#N)nc23)C[C@H]1CC` (stereo partly drawn) [Example 337, 4-((2S,5R)-5-ethyl-2-methyl-4-(1-(4-((tetrahydro-2H-pyran-4-yl)methoxy)phenyl)propyl)piperazin-1-yl)-1-methyl-2-oxo-1,2-dihydropyrido[3,2-d]pyrimidine-6-carbonitrile] had an EC50 in the test on whole blood (pERK) of 54 nM. Further, the IC50 at human DGKα came out at 81 nM; at human DGKζ, 100 nM.

For the molecule `CCC(c1ccc(OCC2CCOCC2)cc1)N1C[C@H](C)N(c2nc(=O)n(C)c3ccc(C#N)nc23)C[C@H]1CC` (stereo partly drawn) [Example 338, 4-((2S,5R)-5-ethyl-2-methyl-4-(1-(4-((tetrahydro-2H-pyran-4-yl)methoxy)phenyl)propyl)piperazin-1-yl)-1-methyl-2-oxo-1,2-dihydropyrido[3,2-d]pyrimidine-6-carbonitrile], the response in the test with whole blood (pERK) was half-maximal at 20000 nM (EC50). Further, the IC50 worked out at 910 nM at human DGKα and 1310 nM on human DGKζ.

In the case of `CCC(c1ccc(OCCC2CC2)cc1)N1C[C@H](C)N(c2nc(=O)n(C)c3ccc(C#N)nc23)C[C@H]1CC` (stereo partly drawn) [Example 339, 4-((2S,5R)-4-(1-(4-(2-cyclopropylethoxy)phenyl)propyl)-5-ethyl-2-methylpiperazin-1-yl)-1-methyl-2-oxo-1,2-dihydropyrido[3,2-d]pyrimidine-6-carbonitrile], in the test with whole blood (pERK), the concentration giving a half-maximal response (EC50) amounted to 280 nM. In addition, the IC50 worked out at 75 nM at human DGKα and 79 nM at human DGKζ.

`CCC(c1ccc(OCCC2CC2)cc1)N1C[C@H](C)N(c2nc(=O)n(C)c3ccc(C#N)nc23)C[C@H]1CC` (stereo partly drawn) [Example 340, 4-((2S,5R)-4-(1-(4-(2-cyclopropylethoxy)phenyl)propyl)-5-ethyl-2-methylpiperazin-1-yl)-1-methyl-2-oxo-1,2-dihydropyrido[3,2-d]pyrimidine-6-carbonitrile]: it took 12900 nM to reach a half-maximal effect in the test on whole blood (pERK) (EC50). Moreover, the IC50 on human DGKα came to 6310 nM; at human DGKζ it was 15900 nM.

Consider `CCC(c1ccc(OCC2COC2)cc1)N1C[C@H](C)N(c2nc(=O)n(C)c3ccc(C#N)nc23)C[C@H]1CC` (stereo partly drawn) [Example 341, 4-((2S,5R)-5-ethyl-2-methyl-4-(1-(4-(oxetan-3-ylmethoxy)phenyl)propyl)piperazin-1-yl)-1-methyl-2-oxo-1,2-dihydropyrido[3,2-d]pyrimidine-6-carbonitrile], for which the concentration for a half-maximal effect (EC50) in the test on whole blood (pERK) came out at 2980 nM. Further, the concentration for half-maximal inhibition (IC50) worked out at 61 nM at human DGKα and 130 nM at human DGKζ.

As for `CCC(c1ccc(OCC2COC2)cc1)N1C[C@H](C)N(c2nc(=O)n(C)c3ccc(C#N)nc23)C[C@H]1CC` (stereo partly drawn) [Example 342, 4-((2S,5R)-5-ethyl-2-methyl-4-(1-(4-(oxetan-3-ylmethoxy)phenyl)propyl)piperazin-1-yl)-1-methyl-2-oxo-1,2-dihydropyrido[3,2-d]pyrimidine-6-carbonitrile], it took 7930 nM to reach a half-maximal effect with whole blood (pERK) (EC50). In addition, the 50% inhibitory concentration (IC50) amounted to 1090 nM at human DGKα and 1200 nM at human DGKζ.
